The values that follow come from BindingDB's records for doi:10.1016/j.ejmech.2020.112339 (China Pharmaceutical University, 2020).

Each structure is given as a SMILES string.

This assay can be described thus: Inhibition of BTK in human TMD8 cells assessed as reduction in cell proliferation incubated for 24 hrs by CCK-8 assay.

Consider `C=CC(=O)Nc1cccc(Nc2ncnc(Nc3ccc(C(=O)N4CCCCC4)cc3)n2)c1`, for which the IC50 came out at 4.36 µM.

The IC50 is the concentration that inhibits the measured activity by half.
